Laboratory results: patent EP4353225A1, “NUTRACEUTICAL OR PHARMACEUTICAL COMPOSITION FOR THE TREATMENT OF PELVIC PAIN” (Erbozeta S.p.A., priority 2022, dated 2024)

Legend:
[1] = tested on: THP-1 differentiated into macrophages; assay: Cytotoxicity / cell viability of differentiated THP-1 in the presence of E. coli (ATP assay); assay type: cell-based; conditions: 2 h pre-treatment + 6 h E. coli
Experimental: Human THP-1 monocytes (ATCC® TIB-202TM) were maintained in THP-1 complete medium (THP-1 CCM) and cultured in a controlled atmosphere at 37 °C. Differentiation into macrophages was induced by incubation with phorbol myristate acetate (PMA) for 24 h. The culture medium was then replaced and the cells left with fresh medium for another 24 h before being exposed to the three functional ingredients, their MIX and the inflammatory stimulus, E. coli.
The cytotoxicity of the three functional ingredients and their MIX was evaluated on a THP-1 immune system model differentiated into macrophages. Based on the method of intake of the formulation, a digestion volume of 2 liters was considered in order to mimic as much as possible the physiological condition of the average volume of liquid contained in the stomach during the digestive process. Cytotoxicity was carried out by constructing a dose-response curve at increasing concentrations of the individual functional ingredients and the MIX in order to identify the maximum concentration usable for subsequent tests. The following concentrations were therefore tested on THP-1: from 50 µg/mL to 600 µg/mL for PEA, from 1.25 µg/mL to 15 µg/mL for DRY MARITIME PINE EXTRACT, from 6.25 µg/mL to 75 µg/mL for HEMP OIL and from 57.5 µg/mL to 690 µg/mL for the MIX. Based on the results of the dose-response curves, cell viability analysis was not performed at higher concentrations due to mortality caused by the mixture at the highest concentration tested. The concentrations used for subsequent experiments were selected in this concentration range. The three functional ingredients and the MIX were dissolved in THP-1 CCM in the absence of antibiotic and in the presence of 1.18 mg/mL of bile as surfactant. The suspensions were incubated under stirring overnight to increase the passage of the functional ingredients into solution and, the following day, the THP-1 cells were washed with Hank's Balanced Salt Solution (HBSS) and pre-treated for 2 h with the different concentrations of the individual functional ingredients and the MIX. At the end of this incubation, the pro-inflammatory stimulus E. coli (1 × 10^6 CFU/mL) was added to the treated cells for a further 6 h. Cells treated only with E. coli were used as a negative control, while cells treated with 10 µM staurosporine were used as a positive cell death control. At the end of the 8 h of treatment, cell viability was assessed by ATP assay (PerkinElmer) to avoid any possible interference from the bacteria present that may occur using other tests such as MTS.

[2] = tested on: transcription factor Nf-kB; assay: Nuclear levels of transcription factor Nf-kB in T24 bladder urothelium cells exposed to THP-1 conditioned media; assay type: cell-based, human; conditions: T24 cells 4 h
Experimental: (§1) Based on the results of the cytotoxicity experiments, the medium conditioned on THP-1 to be used to study the possible anti-inflammatory activity on the bladder urothelium was obtained by exposing for 2 h the differentiated THP-1 cells to the concentrations of the three functional ingredients and the MIX corresponding to 600, 400, 200, 100, 50 and 25 µg/mL for the MICRONIZED PEA, 15, 10, 5, 2.5, 1.25, 0.625 µg/mL for the DRY MARITIME PINE EXTRACT, 75, 50, 25, 12.5, 6.25, 3.125 µg/mL for HEMP OIL and 690, 460, 230, 115, 57.5 and 28.75 µg/mL for the MIX, respectively. At the end of this incubation, the cells were treated for a further 6 h with the inflammatory stimulus E. coli in the presence of the different treatments. Cells exposed only with the inflammatory stimulus in the absence of pre-treatment were used as a positive control of inflammation.
(§2) The specific anti-inflammatory activity on the bladder urothelium of the three functional ingredients and the MIX was evaluated on an in vitro bladder urothelium epithelium composed of the T24 cell line (ATCC HTB-4TM). T24 cells were exposed for 4 h to conditioned media obtained by treating THP-1 cells differentiated into macrophages with different concentrations of the functional ingredients and MIX, and in the presence of E. coli. At the end of treatment, T24 cells were detached with trypsin, centrifuged, and lysed by sonication in lysis buffer. The supernatant obtained following centrifugation at 10,000 g for 10 min at 4 °C was stored at -80 °C. An extended analysis of the impact of functional ingredients and MIX on inflammation was performed using an assay for the determination of the transcription factor Nf-kB (Abcam) and the evaluation of the expression of pro-inflammatory cytokines with an array of 23 human cytokines (Raybiotech), following the manufacturer's instructions. The cytokines interleukin 1β (IL-1β), interleukin 6 (IL-6), and interleukin 8 (IL-8) were quantified by ELISA assay.
(§3) The results are reported expressed as fold change, calculated as the ratio between the values obtained from the respective treatments on the control of inflammation. As such, the fold change is adimensional.

GRO alpha = assay: Cytokine array (23 human cytokines) in T24 bladder urothelium cells exposed to THP-1 conditioned media: GRO alpha; assay type: cell-based; conditions: T24 cells 4 h
Experimental: as §1, §2, §3

GRO a/b/g = assay: Cytokine array (23 human cytokines) in T24 bladder urothelium cells exposed to THP-1 conditioned media: GRO a/b/g; assay type: cell-based; conditions: T24 cells 4 h
Experimental: as §1, §2, §3

GM-CSF = assay: Cytokine array (23 human cytokines) in T24 bladder urothelium cells exposed to THP-1 conditioned media: GM-CSF; assay type: cell-based; conditions: T24 cells 4 h
Experimental: as §1, §2, §3

IL-6 = assay: ELISA of IL-6 in T24 bladder urothelium cells exposed to THP-1 conditioned media; assay type: cell-based, human; conditions: T24 cells 4 h
Experimental: as §1, §2, §3

IL-8 = assay: ELISA of IL-8 in T24 bladder urothelium cells exposed to THP-1 conditioned media; assay type: cell-based, human; conditions: T24 cells 4 h
Experimental: as §1, §2, §3

IL-1β = assay: ELISA of IL-1β in T24 bladder urothelium cells exposed to THP-1 conditioned media; assay type: cell-based, human; conditions: T24 cells 4 h
Experimental: as §1, §2, §3

[3] = Condition 1: MICRONIZED PEA 600, MARITIME PINE EXTRACT 15, HEMP OIL 75, MIX 690 µg/mL (1200, 30, 150, 1380 mg)
[4] = Condition 2: MICRONIZED PEA 400, MARITIME PINE EXTRACT 10, HEMP OIL 50, MIX 460 µg/mL (800, 20, 100, 920 mg)
[5] = Condition 3: MICRONIZED PEA 200, MARITIME PINE EXTRACT 5, HEMP OIL 25, MIX 230 µg/mL (400, 10, 50, 460 mg)
[6] = Condition 4: MICRONIZED PEA 100, MARITIME PINE EXTRACT 2.5, HEMP OIL 12.5, MIX 115 µg/mL (200, 5, 25, 230 mg)
[7] = Condition 5: MICRONIZED PEA 50, MARITIME PINE EXTRACT 1.25, HEMP OIL 6.25, MIX 57.5 µg/mL (100, 2.5, 12.5, 115 mg)
[8] = Condition 6: MICRONIZED PEA 25, MARITIME PINE EXTRACT 0.625, HEMP OIL 3.125, MIX 28.75 µg/mL (50, 1.25, 6.25, 57.5 mg)

SMILES: CCCCCCCCCCCCCCCC(=O)NCCO [MICRONIZED PEA, palmitoylethanolamide]
- Viability ([1]; MICRONIZED PEA 50 µg/mL (100 mg)): 73.2 ± 9.5%
- Viability ([1]; MICRONIZED PEA 100 µg/mL (200 mg)): 106.5 ± 5.6%
- Viability ([1]; MICRONIZED PEA 300 µg/mL (600 mg)): 86.5 ± 5.9%
- Viability ([1]; MICRONIZED PEA 500 µg/mL (1000 mg)): 71.9 ± 1.3%
- Viability ([1]; MICRONIZED PEA 600 µg/mL (1200 mg)): 73.9 ± 19.5%
- Nf-kB (Fold change vs Control) Average [2, 3]: 2.89 Fold change
- Nf-kB (Fold change vs Control) Average [2, 4]: 6.16 Fold change
- Nf-kB (Fold change vs Control) Average [2, 5]: 0.12 Fold change
- Nf-kB (Fold change vs Control) Average [2, 6]: 0.75 Fold change
- Nf-kB (Fold change vs Control) Average [2, 7]: 0.57 Fold change
- Nf-kB (Fold change vs Control) Average [2, 8]: 0.43 Fold change
- Nf-kB levels (nuclear translocation) ([2]; result in words, over the concentrations tested): reduces the nuclear translocation of the transcription factor NF-κB starting from 25 µg/mL (50 mg) up to 200 µg/mL (400 mg)
- GRO alpha (Fold change vs Control) Average (GRO alpha; [3]): 1.49 Fold change
- GRO alpha (Fold change vs Control) Average (GRO alpha; [4]): 0.79 Fold change
- GRO alpha (Fold change vs Control) Average (GRO alpha; [5]): 1.28 Fold change
- GRO alpha (Fold change vs Control) Average (GRO alpha; [6]): 1.23 Fold change
- GRO alpha (Fold change vs Control) Average (GRO alpha; [7]): 0.91 Fold change
- GRO alpha (Fold change vs Control) Average (GRO alpha; [8]): 1.17 Fold change
- GRO a/b/g (Fold change vs Control) Average (GRO a/b/g; [3]): 1.14 Fold change
- GRO a/b/g (Fold change vs Control) Average (GRO a/b/g; [4]): 0.92 Fold change
- GRO a/b/g (Fold change vs Control) Average (GRO a/b/g; [5]): 0.81 Fold change
- GRO a/b/g (Fold change vs Control) Average (GRO a/b/g; [6]): 0.58 Fold change
- GRO a/b/g (Fold change vs Control) Average (GRO a/b/g; [7]): 1 Fold change
- GRO a/b/g (Fold change vs Control) Average (GRO a/b/g; [8]): 1.13 Fold change
- GM-CSF fold change vs control (GM-CSF; [3]): 1.01 Fold change
- GM-CSF fold change vs control (GM-CSF; [4]): 1.1 Fold change
- GM-CSF fold change vs control (GM-CSF; [5]): 0.9 Fold change
- GM-CSF fold change vs control (GM-CSF; [6]): 0.21 Fold change
- GM-CSF fold change vs control (GM-CSF; [7]): 1.15 Fold change
- GM-CSF fold change vs control (GM-CSF; [8]): 1.19 Fold change
- IL-6 (Fold change vs Control) Average (IL-6; [3]): 0.48 Fold change
- IL-6 (Fold change vs Control) Average (IL-6; [4]): 0.34 Fold change
- IL-6 (Fold change vs Control) Average (IL-6; [5]): 0.34 Fold change
- IL-6 (Fold change vs Control) Average (IL-6; [6]): 0.33 Fold change
- IL-6 (Fold change vs Control) Average (IL-6; [7]): 0.38 Fold change
- IL-6 (Fold change vs Control) Average (IL-6; [8]): 0.45 Fold change
- IL-8 (Fold change vs Control) Average (IL-8; [3]): 0.55 Fold change
- IL-8 (Fold change vs Control) Average (IL-8; [4]): 0.49 Fold change
- IL-8 (Fold change vs Control) Average (IL-8; [5]): 0.51 Fold change
- IL-8 (Fold change vs Control) Average (IL-8; [6]): 0.54 Fold change
- IL-8 (Fold change vs Control) Average (IL-8; [7]): 0.68 Fold change
- IL-8 (Fold change vs Control) Average (IL-8; [8]): 0.69 Fold change
- IL-1β (Fold change vs Control) Average (IL-1β; [3]): 0.14 Fold change
- IL-1β (Fold change vs Control) Average (IL-1β; [4]): 0.25 Fold change
- IL-1β (Fold change vs Control) Average (IL-1β; [5]): 0.15 Fold change
- IL-1β (Fold change vs Control) Average (IL-1β; [6]): 0.25 Fold change
- IL-1β (Fold change vs Control) Average (IL-1β; [7]): 0.30 Fold change
- IL-1β (Fold change vs Control) Average (IL-1β; [8]): 0.30 Fold change
